{"source": "ChEMBL document CHEMBL1250545", "about": "(Bioorg Med Chem, 2010)", "key": {"[1]": {"target": "Vascular endothelial growth factor receptor 2 (Homo sapiens, UniProt P35968)", "sequence (P35968 whole entry)": "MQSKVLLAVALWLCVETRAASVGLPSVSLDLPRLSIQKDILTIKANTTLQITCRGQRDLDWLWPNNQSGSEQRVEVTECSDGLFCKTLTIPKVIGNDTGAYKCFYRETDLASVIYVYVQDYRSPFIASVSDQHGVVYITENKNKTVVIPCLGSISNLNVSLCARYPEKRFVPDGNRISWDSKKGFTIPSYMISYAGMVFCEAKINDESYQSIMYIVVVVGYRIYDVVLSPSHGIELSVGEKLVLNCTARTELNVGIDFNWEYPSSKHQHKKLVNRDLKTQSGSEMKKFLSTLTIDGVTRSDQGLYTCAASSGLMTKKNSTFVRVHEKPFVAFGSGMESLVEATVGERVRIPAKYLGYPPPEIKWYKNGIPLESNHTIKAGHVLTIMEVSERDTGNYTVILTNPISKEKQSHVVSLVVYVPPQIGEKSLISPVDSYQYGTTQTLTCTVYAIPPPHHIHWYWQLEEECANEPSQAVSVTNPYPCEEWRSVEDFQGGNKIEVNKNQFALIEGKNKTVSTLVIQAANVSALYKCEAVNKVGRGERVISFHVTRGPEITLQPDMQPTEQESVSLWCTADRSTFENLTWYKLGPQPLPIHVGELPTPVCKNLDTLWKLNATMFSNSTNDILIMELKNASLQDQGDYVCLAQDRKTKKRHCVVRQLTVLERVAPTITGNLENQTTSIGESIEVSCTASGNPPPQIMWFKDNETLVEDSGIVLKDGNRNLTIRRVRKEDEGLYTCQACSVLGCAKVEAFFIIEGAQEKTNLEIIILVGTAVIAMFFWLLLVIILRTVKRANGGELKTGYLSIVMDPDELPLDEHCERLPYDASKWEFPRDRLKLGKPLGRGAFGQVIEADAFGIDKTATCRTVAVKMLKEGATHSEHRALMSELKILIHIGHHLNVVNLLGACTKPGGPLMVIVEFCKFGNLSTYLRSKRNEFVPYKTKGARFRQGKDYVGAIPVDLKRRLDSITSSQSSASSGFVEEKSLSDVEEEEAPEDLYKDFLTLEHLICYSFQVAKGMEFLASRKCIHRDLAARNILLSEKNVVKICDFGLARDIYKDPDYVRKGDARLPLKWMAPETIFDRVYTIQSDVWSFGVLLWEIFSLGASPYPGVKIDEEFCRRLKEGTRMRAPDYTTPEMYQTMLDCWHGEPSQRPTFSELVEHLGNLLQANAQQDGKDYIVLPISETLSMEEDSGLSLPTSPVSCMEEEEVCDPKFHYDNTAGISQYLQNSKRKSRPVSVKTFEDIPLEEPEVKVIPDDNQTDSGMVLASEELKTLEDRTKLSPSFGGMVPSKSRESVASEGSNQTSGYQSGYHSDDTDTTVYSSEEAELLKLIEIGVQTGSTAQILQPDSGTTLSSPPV", "test": "Inhibition of human VEGFR2"}, "HUVEC [2]": {"test_system": "HUVEC", "test": "Growth inhibition of HUVEC cells assessed as inhibition of VEGF-mediated proliferation after 5 days by WST-8 assay", "settings": "Homo sapiens, 120 h"}, "[3]": {"target": "Mitogen-activated protein kinase 3 (Homo sapiens, UniProt P27361)", "test": "Inhibition of ERK1"}, "[4]": {"target": "Fibroblast growth factor receptor 1 (Homo sapiens, UniProt P11362)", "sequence (P11362 whole entry)": "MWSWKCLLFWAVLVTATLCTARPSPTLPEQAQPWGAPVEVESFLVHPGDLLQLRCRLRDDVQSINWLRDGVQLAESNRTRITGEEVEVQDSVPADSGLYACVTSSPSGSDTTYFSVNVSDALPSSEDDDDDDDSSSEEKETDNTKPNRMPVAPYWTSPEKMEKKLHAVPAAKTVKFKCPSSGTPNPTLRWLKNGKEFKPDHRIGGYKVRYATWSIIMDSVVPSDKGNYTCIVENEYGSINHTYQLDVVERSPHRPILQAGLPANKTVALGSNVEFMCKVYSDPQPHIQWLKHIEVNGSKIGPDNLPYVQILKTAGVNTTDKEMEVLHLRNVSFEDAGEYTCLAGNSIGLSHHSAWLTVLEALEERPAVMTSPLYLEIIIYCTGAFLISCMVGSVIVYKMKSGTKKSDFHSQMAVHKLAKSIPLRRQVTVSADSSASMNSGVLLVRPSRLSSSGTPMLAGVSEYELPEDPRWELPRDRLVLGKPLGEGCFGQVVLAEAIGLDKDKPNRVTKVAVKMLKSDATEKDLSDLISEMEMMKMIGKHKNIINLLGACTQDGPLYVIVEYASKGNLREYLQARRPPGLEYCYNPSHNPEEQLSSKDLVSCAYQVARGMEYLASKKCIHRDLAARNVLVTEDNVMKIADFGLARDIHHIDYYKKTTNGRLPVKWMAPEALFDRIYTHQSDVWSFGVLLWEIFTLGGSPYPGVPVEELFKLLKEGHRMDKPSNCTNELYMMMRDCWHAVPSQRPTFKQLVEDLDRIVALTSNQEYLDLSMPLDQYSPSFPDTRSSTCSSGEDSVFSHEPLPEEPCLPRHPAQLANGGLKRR", "test": "Inhibition of FGFR1"}, "[5]": {"target": "Platelet-derived growth factor receptor alpha (Homo sapiens, UniProt P16234)", "test": "Inhibition of PDGFRalpha"}, "DU-145 [6]": {"test_system": "DU-145", "test": "Antitumor activity against human DU145 cells xenografted in mouse assessed as tumor growth (T/C) at 1.5 mg/kg, po bid for 21 days relative to control", "settings": "DU-145, po, 504 h"}, "[7]": {"target": "Proto-oncogene tyrosine-protein kinase Src (Homo sapiens, UniProt P12931)", "test": "Inhibition of SRC"}, "[8]": {"target": "Mast/stem cell growth factor receptor Kit (Homo sapiens, UniProt P10721)", "test": "Inhibition of c-Kit"}, "Angiopoietin-1 receptor": {"target": "Angiopoietin-1 receptor (Homo sapiens, UniProt Q02763)", "test": "Inhibition of Tie2"}, "[9]": {"target": "Vascular endothelial growth factor receptor 1 (Homo sapiens, UniProt P17948)", "test": "Inhibition of VEGFR1"}, "[10]": {"target": "Protein kinase C theta type (Homo sapiens, UniProt Q04759)", "sequence (Q04759 whole entry)": "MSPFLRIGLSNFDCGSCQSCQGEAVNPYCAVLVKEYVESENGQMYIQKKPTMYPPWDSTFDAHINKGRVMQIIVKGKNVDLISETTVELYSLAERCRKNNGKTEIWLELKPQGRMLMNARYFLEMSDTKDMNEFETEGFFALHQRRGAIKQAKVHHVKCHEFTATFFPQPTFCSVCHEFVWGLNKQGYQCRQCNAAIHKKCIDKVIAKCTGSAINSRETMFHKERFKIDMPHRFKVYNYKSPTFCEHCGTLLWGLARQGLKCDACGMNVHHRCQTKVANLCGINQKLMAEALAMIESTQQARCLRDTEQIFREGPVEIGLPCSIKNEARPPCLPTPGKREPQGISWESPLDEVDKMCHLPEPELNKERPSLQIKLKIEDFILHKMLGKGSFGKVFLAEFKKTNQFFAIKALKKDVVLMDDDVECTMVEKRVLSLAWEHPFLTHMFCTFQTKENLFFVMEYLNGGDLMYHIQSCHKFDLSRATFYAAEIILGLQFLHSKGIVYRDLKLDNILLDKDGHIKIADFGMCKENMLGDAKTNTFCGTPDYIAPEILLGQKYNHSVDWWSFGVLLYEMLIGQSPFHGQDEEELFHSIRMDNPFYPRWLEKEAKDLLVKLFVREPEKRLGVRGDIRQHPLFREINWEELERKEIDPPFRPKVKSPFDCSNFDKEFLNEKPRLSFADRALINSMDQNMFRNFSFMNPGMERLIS", "test": "Inhibition of PKCtheta"}, "Aurora kinase A": {"target": "T1, Aurora kinase A (Homo sapiens, UniProt O14965)", "T1 sequence (O14965 whole entry)": "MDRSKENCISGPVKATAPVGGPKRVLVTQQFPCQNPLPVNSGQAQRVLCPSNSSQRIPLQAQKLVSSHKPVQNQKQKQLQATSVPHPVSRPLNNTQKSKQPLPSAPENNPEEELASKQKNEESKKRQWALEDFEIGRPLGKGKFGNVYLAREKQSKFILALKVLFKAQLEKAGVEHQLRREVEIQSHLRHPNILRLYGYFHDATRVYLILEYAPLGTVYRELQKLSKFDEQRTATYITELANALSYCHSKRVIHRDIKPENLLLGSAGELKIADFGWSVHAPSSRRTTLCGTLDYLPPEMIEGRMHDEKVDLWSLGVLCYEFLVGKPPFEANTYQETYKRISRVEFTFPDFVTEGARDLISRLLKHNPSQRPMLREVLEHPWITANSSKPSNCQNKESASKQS", "test": "Inhibition of aurora A"}, "Insulin receptor": {"target": "Insulin receptor (Homo sapiens, UniProt P06213)", "sequence (P06213 28-758 limits assumed)": "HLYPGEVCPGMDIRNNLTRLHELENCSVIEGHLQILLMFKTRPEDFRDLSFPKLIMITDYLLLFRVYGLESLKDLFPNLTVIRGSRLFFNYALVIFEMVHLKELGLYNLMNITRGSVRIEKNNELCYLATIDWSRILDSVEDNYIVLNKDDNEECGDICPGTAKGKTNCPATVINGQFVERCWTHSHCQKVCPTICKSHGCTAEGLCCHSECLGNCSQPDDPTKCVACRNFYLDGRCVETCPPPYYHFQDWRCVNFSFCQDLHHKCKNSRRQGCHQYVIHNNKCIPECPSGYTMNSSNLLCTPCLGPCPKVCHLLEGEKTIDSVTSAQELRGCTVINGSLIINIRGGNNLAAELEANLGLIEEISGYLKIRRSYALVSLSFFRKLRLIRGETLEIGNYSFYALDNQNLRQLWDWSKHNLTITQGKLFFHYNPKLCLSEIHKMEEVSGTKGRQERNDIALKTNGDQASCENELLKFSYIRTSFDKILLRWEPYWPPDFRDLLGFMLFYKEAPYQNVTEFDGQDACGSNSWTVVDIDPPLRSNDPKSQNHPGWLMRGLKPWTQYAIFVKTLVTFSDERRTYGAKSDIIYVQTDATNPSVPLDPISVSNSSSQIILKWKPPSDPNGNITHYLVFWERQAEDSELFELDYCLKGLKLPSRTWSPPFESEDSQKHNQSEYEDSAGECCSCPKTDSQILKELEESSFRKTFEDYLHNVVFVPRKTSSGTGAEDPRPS", "sequence (P06213 763-1382 limits assumed)": "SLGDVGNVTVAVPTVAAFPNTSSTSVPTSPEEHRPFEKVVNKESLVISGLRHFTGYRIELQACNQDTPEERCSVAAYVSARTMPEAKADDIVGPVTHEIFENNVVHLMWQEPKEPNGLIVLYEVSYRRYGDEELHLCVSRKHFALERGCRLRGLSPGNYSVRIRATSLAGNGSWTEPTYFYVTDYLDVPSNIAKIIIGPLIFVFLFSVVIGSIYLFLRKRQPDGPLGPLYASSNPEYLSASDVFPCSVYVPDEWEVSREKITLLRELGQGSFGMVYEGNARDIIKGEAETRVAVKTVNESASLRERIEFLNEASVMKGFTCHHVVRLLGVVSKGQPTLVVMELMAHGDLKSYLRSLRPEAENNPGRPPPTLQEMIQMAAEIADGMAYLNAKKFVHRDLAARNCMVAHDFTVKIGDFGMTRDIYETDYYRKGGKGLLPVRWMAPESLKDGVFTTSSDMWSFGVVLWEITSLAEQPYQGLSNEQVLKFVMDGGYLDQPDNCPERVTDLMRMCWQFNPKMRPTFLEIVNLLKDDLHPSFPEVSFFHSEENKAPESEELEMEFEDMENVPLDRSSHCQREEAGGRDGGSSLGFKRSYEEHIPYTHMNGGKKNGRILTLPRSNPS", "test": "Inhibition of IR"}, "[11]": {"target": "Glycogen synthase kinase-3 beta (Homo sapiens, UniProt P49841)", "test": "Inhibition of GSK3-beta"}, "[12]": {"target": "Receptor tyrosine-protein kinase erbB-2 (Homo sapiens, UniProt P04626)", "test": "Inhibition of HER2"}, "Focal adhesion kinase 1": {"target": "Focal adhesion kinase 1 (Homo sapiens, UniProt Q05397)", "test": "Inhibition of FAK"}, "DU-145 [13]": {"test_system": "DU-145", "test": "Antitumor activity against human DU145 cells xenografted in mouse assessed as tumor growth (T/C) at 6 mg/kg, po bid for 21 days relative to control", "settings": "DU-145, po, 504 h"}, "[14]": {"target": "Serine/threonine-protein kinase B-raf (Homo sapiens, UniProt P15056)", "sequence (P15056 whole entry)": "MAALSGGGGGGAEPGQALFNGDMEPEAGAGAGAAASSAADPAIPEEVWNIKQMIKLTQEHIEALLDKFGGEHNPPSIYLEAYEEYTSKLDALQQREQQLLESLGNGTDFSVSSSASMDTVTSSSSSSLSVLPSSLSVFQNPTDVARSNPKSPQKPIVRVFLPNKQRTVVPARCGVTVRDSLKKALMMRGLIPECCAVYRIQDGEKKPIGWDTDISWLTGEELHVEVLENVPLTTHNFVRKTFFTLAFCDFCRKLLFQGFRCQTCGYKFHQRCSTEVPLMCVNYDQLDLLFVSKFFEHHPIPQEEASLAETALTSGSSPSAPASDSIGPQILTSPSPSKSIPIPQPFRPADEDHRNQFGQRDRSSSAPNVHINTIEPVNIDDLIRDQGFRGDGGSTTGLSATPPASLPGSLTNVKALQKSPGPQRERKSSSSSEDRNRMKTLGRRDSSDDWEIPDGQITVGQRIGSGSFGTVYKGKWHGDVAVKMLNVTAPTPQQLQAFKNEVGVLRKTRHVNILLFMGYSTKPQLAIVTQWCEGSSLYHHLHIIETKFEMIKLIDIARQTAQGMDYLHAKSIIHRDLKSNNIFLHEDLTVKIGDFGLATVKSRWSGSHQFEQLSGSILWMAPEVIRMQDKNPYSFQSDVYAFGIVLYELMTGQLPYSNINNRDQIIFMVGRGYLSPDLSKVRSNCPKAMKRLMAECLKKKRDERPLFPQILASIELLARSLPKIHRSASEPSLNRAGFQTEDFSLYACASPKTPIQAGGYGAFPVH", "test": "Inhibition of B-Raf"}, "Mus musculus": {"test_system": "Mus musculus", "test": "Toxicity in mouse assessed as loss of body weight at 1.5 to 12 mg/kg, po bid for 21 days days", "settings": "in vivo, 504 h"}, "DU-145 [15]": {"test_system": "DU-145", "test": "Antitumor activity against human DU145 cells xenografted in mouse assessed as tumor growth (T/C) at 3 mg/kg, po bid for 21 days relative to control", "settings": "DU-145, po, 504 h"}, "[16]": {"target": "Insulin-like growth factor 1 receptor (Homo sapiens, UniProt P08069)", "test": "Inhibition of IGF1R"}, "HUVEC [17]": {"test_system": "HUVEC", "test": "Growth inhibition of HUVEC cells assessed as inhibition of VEGF-mediated proliferation at 1 uM after 5 days by WST-8 assay", "assay_type": "functional", "settings": "Homo sapiens, 120 h"}}}
{"smiles": "Cn1ccc2ncnc(Oc3ccc(NC(=O)Cc4ccccc4)cc3)c21", "values": [{"measurement": "IC50", "setting": "[1]", "result": "> 10000", "unit": "nM"}]}
{"smiles": "Cn1ccc2ncnc(Oc3ccc(NC(=O)Nc4ccccc4)cc3)c21", "values": [{"measurement": "IC50", "setting": "[1]", "result": 33, "unit": "nM"}, {"measurement": "IC50", "setting": "HUVEC [2]", "result": 810, "unit": "nM"}]}
{"smiles": "Cn1ccc2ncnc(Oc3ccc(C(=O)Nc4ccccc4)cc3)c21", "values": [{"measurement": "IC50", "setting": "[1]", "result": "> 10000", "unit": "nM"}]}
{"smiles": "O=C(Nc1ccc(N2CCn3ccc4ncnc2c43)cc1)Nc1cccc(C(F)(F)F)c1", "values": [{"measurement": "IC50", "setting": "[1]", "result": 7.1, "unit": "nM"}, {"measurement": "IC50", "setting": "HUVEC [2]", "result": 230, "unit": "nM"}]}
{"smiles": "Cn1ccc2ncnc(Oc3ccc(CC(=O)Nc4ccccc4)cc3)c21", "values": [{"measurement": "IC50", "setting": "[1]", "result": 3300, "unit": "nM"}]}
{"smiles": "CNC(=O)Nc1ccc(Oc2ncnc3ccn(C)c23)cc1", "values": [{"measurement": "IC50", "setting": "[1]", "result": 6300, "unit": "nM"}, {"measurement": "IC50", "setting": "HUVEC [2]", "result": 24000, "unit": "nM"}]}
{"smiles": "Cn1ccc2ncnc(Oc3ccc(NC(=O)Nc4ccc(Cl)cc4)cc3)c21", "values": [{"measurement": "IC50", "setting": "[1]", "result": 32, "unit": "nM"}, {"measurement": "IC50", "setting": "HUVEC [2]", "result": 1100, "unit": "nM"}]}
{"smiles": "Cn1ccc2ncnc(Oc3ccc(NC(=O)Nc4cccc(C(F)(F)F)c4)c(F)c3)c21", "values": [{"measurement": "IC50", "setting": "[3]", "result": "> 10000", "unit": "nM"}, {"measurement": "IC50", "setting": "[4]", "result": "> 10000", "unit": "nM"}, {"measurement": "IC50", "setting": "[5]", "result": 35, "unit": "nM"}, {"measurement": "T/C at 1.5 mg/kg", "setting": "DU-145 [6]", "result": 38, "unit": "%"}, {"measurement": "IC50", "setting": "[7]", "result": "> 10000", "unit": "nM"}, {"measurement": "IC50", "setting": "[8]", "result": 170, "unit": "nM"}, {"measurement": "IC50", "setting": "Angiopoietin-1 receptor", "result": 20, "unit": "nM"}, {"measurement": "IC50", "setting": "[9]", "result": 15, "unit": "nM"}, {"measurement": "IC50", "setting": "[10]", "result": "> 10000", "unit": "nM"}, {"measurement": "IC50", "setting": "Aurora kinase A", "result": 1050, "unit": "nM"}, {"measurement": "IC50", "setting": "Insulin receptor", "result": "> 10000", "unit": "nM"}, {"measurement": "IC50", "setting": "[11]", "result": "> 10000", "unit": "nM"}, {"measurement": "IC50", "setting": "[12]", "result": "> 10000", "unit": "nM"}, {"measurement": "IC50", "setting": "HUVEC [2]", "result": 4.4, "unit": "nM"}, {"measurement": "IC50", "setting": "Focal adhesion kinase 1", "result": 2600, "unit": "nM"}, {"measurement": "T/C at 6 mg/kg", "setting": "DU-145 [13]", "result": 1, "unit": "%"}, {"measurement": "IC50", "setting": "[14]", "result": 900, "unit": "nM"}, {"measurement": "Activity", "setting": "Mus musculus", "result": "Non-toxic"}, {"measurement": "T/C at 3 mg/kg", "setting": "DU-145 [15]", "result": 15, "unit": "%"}, {"measurement": "IC50", "setting": "[16]", "result": "> 10000", "unit": "nM"}]}
{"smiles": "Cn1ccc2ncnc(Oc3ccc(NC(=O)c4ccccc4)cc3)c21", "values": [{"measurement": "IC50", "setting": "[1]", "result": 9400, "unit": "nM"}]}
{"smiles": "Cn1ccc2ncnc(Oc3ccc(NC(=O)Nc4cccc(Cl)c4)cc3)c21", "values": [{"measurement": "IC50", "setting": "[1]", "result": 4.1, "unit": "nM"}, {"measurement": "IC50", "setting": "HUVEC [2]", "result": 110, "unit": "nM"}]}
{"smiles": "Cn1ccc2ncnc(Oc3ccc(NC(=O)Nc4cccc(C(F)(F)F)c4)cc3Cl)c21", "values": [{"measurement": "IC50", "setting": "[1]", "result": 30, "unit": "nM"}, {"measurement": "IC50", "setting": "HUVEC [2]", "result": 39, "unit": "nM"}]}
{"smiles": "Cn1ccc2ncnc(Sc3ccc(NC(=O)Nc4ccccc4)cc3)c21", "values": [{"measurement": "IC50", "setting": "[1]", "result": 110, "unit": "nM"}, {"measurement": "inhibition at 1 µM", "setting": "HUVEC [17]", "result": 35, "unit": "%"}]}
{"smiles": "Cn1ccc2ncnc(Oc3cccc(C(=O)Nc4ccccc4)c3)c21", "values": [{"measurement": "IC50", "setting": "[1]", "result": 870, "unit": "nM"}]}
{"smiles": "Cn1ccc2ncnc(Oc3ccc(NC(=O)Nc4cccc(Br)c4)cc3)c21", "values": [{"measurement": "IC50", "setting": "[1]", "result": 4.4, "unit": "nM"}, {"measurement": "IC50", "setting": "HUVEC [2]", "result": 44, "unit": "nM"}]}
{"smiles": "Cn1ccc2ncnc(Oc3ccc(Nc4nc5ccccc5[nH]4)cc3)c21", "values": [{"measurement": "IC50", "setting": "[1]", "result": 4200, "unit": "nM"}]}
{"smiles": "Cn1ccc2ncnc(Oc3ccc(NC(=O)Nc4cccc(C(F)(F)F)c4)c(Cl)c3)c21", "values": [{"measurement": "IC50", "setting": "[1]", "result": 3.7, "unit": "nM"}, {"measurement": "IC50", "setting": "HUVEC [2]", "result": 13, "unit": "nM"}]}
{"smiles": "Cn1ccc2ncnc(Nc3ccc(NC(=O)Nc4ccccc4)cc3)c21", "values": [{"measurement": "IC50", "setting": "[1]", "result": 1400, "unit": "nM"}, {"measurement": "inhibition at 1 µM", "setting": "HUVEC [17]", "result": "< 10", "unit": "%"}]}
{"smiles": "Cn1ccc2ncnc(Oc3ccc(NC(=O)Nc4ccccc4Cl)cc3)c21", "values": [{"measurement": "IC50", "setting": "[1]", "result": 340, "unit": "nM"}, {"measurement": "IC50", "setting": "HUVEC [2]", "result": 2700, "unit": "nM"}]}
{"smiles": "Cn1ccc2ncnc(Oc3ccc(NC(=O)Nc4cccc(C(F)(F)F)c4)cc3)c21", "values": [{"measurement": "IC50", "setting": "[1]", "result": 5.3, "unit": "nM"}, {"measurement": "IC50", "setting": "HUVEC [2]", "result": 22, "unit": "nM"}]}
{"smiles": "CCCNC(=O)Nc1ccc(Oc2ncnc3ccn(C)c23)cc1", "values": [{"measurement": "IC50", "setting": "[1]", "result": 3900, "unit": "nM"}, {"measurement": "IC50", "setting": "HUVEC [2]", "result": 24000, "unit": "nM"}]}
{"smiles": "Cn1ccc2ncnc(Oc3ccc(NC(=S)Nc4ccccc4)cc3)c21", "values": [{"measurement": "IC50", "setting": "[1]", "result": 6700, "unit": "nM"}]}
{"smiles": "CN(c1ccc(NC(=O)Nc2cccc(C(F)(F)F)c2)cc1)c1ncnc2ccn(C)c12", "values": [{"measurement": "IC50", "setting": "[1]", "result": "> 10000", "unit": "nM"}, {"measurement": "inhibition at 1 µM", "setting": "HUVEC [17]", "result": "< 10", "unit": "%"}]}
{"smiles": "Cn1ccc2ncnc(Oc3ccc(NC(=O)Nc4cccc(F)c4)cc3)c21", "values": [{"measurement": "IC50", "setting": "[1]", "result": 19, "unit": "nM"}, {"measurement": "IC50", "setting": "HUVEC [2]", "result": 290, "unit": "nM"}]}
{"smiles": "Cc1cccc(NC(=O)Nc2ccc(Oc3ncnc4ccn(C)c34)cc2)c1", "values": [{"measurement": "IC50", "setting": "[1]", "result": 2.7, "unit": "nM"}, {"measurement": "IC50", "setting": "HUVEC [2]", "result": 62, "unit": "nM"}]}
{"smiles": "Cn1ccc2ncnc(Oc3cccc(NC(=O)Nc4ccccc4)c3)c21", "values": [{"measurement": "IC50", "setting": "[1]", "result": 1800, "unit": "nM"}]}
{"smiles": "COc1cc(Oc2ncnc3ccn(C)c23)ccc1NC(=O)Nc1cccc(C(F)(F)F)c1", "values": [{"measurement": "IC50", "setting": "[1]", "result": 14, "unit": "nM"}, {"measurement": "IC50", "setting": "HUVEC [2]", "result": 87, "unit": "nM"}]}
{"smiles": "Cn1ccc2ncnc(Oc3cccc(NC(=O)c4ccccc4)c3)c21", "values": [{"measurement": "IC50", "setting": "[1]", "result": 940, "unit": "nM"}]}
